These results are taken from patent publication US20120010206A1, “IMIDAZOLOPYRIDINE COMPOUNDS USEFUL FOR THE TREATMENT OF DEGENERATIVE AND INFLAMMATORY DISEASES” (priority 2006, published 2012).

The test deals with MMP1 expression by complex trigger activated SFs. Kind of test: MMP assay: MMP1 expression (ELISA) by SFs activated with the 'complex trigger'. The class given is cell-based. Conditions: Homo sapiens; SFs activated with supernatant of TNF-α-treated THP-1 cells (complex trigger), 48 hrs, FIG. 3; read-out: IC50 of reduction of MMP1 expression by SFs. The procedure: A 384-well format ELISA for measurement of MMP1 is developed. Various primary antibodies are tested, as well as various ELISA protocols. The following protocol is developed and validated to measure MMP1 levels in SF supernatant in 384 well plates: white Lumitrac 600 384 well plates (Greiner) are coated with 2 μg/mL anti-MMP1 antibody MAB1346 (Chemicon). The antibody is diluted in buffer 40 (1.21 g Tris base (Sigma), 0.58 g NaCl (Calbiochem) and 5 mL 10% NaN3 (Sigma) in 1 L milliQ water and adjusted to pH 8.5). After overnight incubation at 4° C., plates are washed with PBS (80 g NaCl, 2 g KCl (Sigma), 11.5 g Na2HPO4.7H2O and 2 g KH2PO4 in 10 L milliQ; pH 7.4) and blocked with 100 μL/well Casein buffer (2% Casein (VWR International) in PBS). Next day, casein buffer is removed from ELISA plates and replaced by 50 μL/well EC buffer (4 g casein, 2.13 g Na2HPO4 (Sigma), 2 g bovine albumin (Sigma), 0.69 g NaH2PO4.H2O (Sigma), 0.5 g CHAPS (Roche), 23.3 g NaCl, 4 mL 0.5 M EDTA pH 8 (Invitrogen), 5 mL 10% NaN3 in 1 L milliQ and adjusted to pH 7.0). 0.25 mM DTT (Sigma) is added to the thawed sample plates. After removal of the EC buffer, 20 μL of sample is transferred to the ELISA plates. […] Readout is performed on the Luminoscan Ascent Luminometer (Labsystems) with an integration time of 200 msec or with an Envision reader (Perkin Elmer). […]

As for `C[C@@H]1C[C@H]2[C@@H]3CCC4=CC(=O)C=C[C@]4(C)[C@@]3(F)[C@@H](O)C[C@]2(C)[C@@]1(O)C(=O)CO` [dexamethasone], the 50% inhibitory concentration (IC50) was ~1 nM.

In general, IC50 refers to the concentration that inhibits the measured activity by half.
